Experimental findings from patent publication US20170202780A1, “PHARMACEUTICAL COMPOSITION” (SENTAN Pharma Inc., priority 2014, published 2017) are described below.

A short description of series [1]: Maximum soluble amount of bulk drug for intravenous dosing. It counts as physicochemical. The note with it: expressed as dose.
For series [2], the system named is model mouse of myocardial ischemia-reperfusion. The series is described as follows: Infarct size (area of infarct region/area of AAR) after myocardial ischemia-reperfusion. It counts as in vivo. The note with it: iv. The protocol:
(§1) Mice (C57BL/6J, 8 to 10 weeks of age, male, 25 to 30 g, n=3) were intraperitoneally administered with pentobarbital sodium (60 mg/kg) or subjected to inhalation anesthesia with isoflurane. During the procedure, respiration was controlled by a mechanical ventilator (tidal volume: 0.5 ml, respiratory rate: 140 breaths/min); the mouse was kept warm using a heating pad so that the rectal temperature was maintained at 36.8° C. to 37.2° C. An incision was made horizontally at the level of the third to fourth intercostal space; and the pericardium was opened. […] ST change in electrocardiogram and a change in the color of cardiac muscles were observed and ischemia in the cardiac muscles was checked. […]
Twenty-four hours after the reperfusion, the mouse was anesthetized again and endotracheal intubation was conducted, followed by thoracotomy. […] In evaluation of the specimen, SMZ1500 (manufactured by Nikon Corporation) was employed as an optical and fluorescence microscope. […]
Each of the sections was stained in the same manner as described above; and the areas of infarct (region shown in white) and AAR (region shown in red) were each measured and the area of the infarct region/the area of AAR was calculated. […]
Each of the sections was stained in the same manner as described above; and the areas of infarct and AAR were each measured and the area of the infarct region/the area of AAR was calculated. […]

The test system is the same in series [3]. As to the kind of experiment: Selective drug delivery to ischemia reperfusion sites, fluorescence of heart specimens. The note with it: stereo microscope, heart specimen 24 h after reperfusion; iv at reperfusion, FITC 40 mg/kg or FITC-NP 800 mg/kg. It counts as in vivo. As for the experimental part:
as §1, with “checked. The silicone tube was removed 30 minutes after the ligature. Reperfusion was carried out and at the same time 0.1 to 0.2 ml of solution of test substance was intravenously injected. The chest was closed using 5-0 silk suture; and then extubation was performed after spontaneous breathing was confirmed. The intravenously-injected test substance is FITC (40 mg/kg) or FITC-NP (800 mg/kg).” for “checked.”
Twenty-four hours after the reperfusion, the mouse was anesthetized again and endotracheal intubation was conducted, followed by thoracotomy. […] In evaluation of the specimen, SMZ1500 (manufactured by Nikon Corporation) was employed as an optical and fluorescence microscope.

Take `CCc1ccc(CCOc2ccc(CC3SC(=O)NC3=O)cc2)nc1` (stereo not shown) [pioglitazone]: the maximum soluble amount in series [1] amounted to 3.0 mg/kg. Regarding `O=C(O)C[C@H](O)C[C@H](O)/C=C/c1c(C2CC2)nc2ccccc2c1-c1ccc(F)cc1` [pitavastatin], the “reduction of the infarct size” value in series [2] (pitavastatin dosed at 10 mg/kg) is listed as “drastic reduction of the infarct size was not seen”. In series [1], the maximum soluble amount stood at 10 mg/kg. On to `CCCCC1=NC2(CCCC2)C(=O)N1Cc1ccc(-c2ccccc2-c2nnn[nH]2)cc1` [irbesartan], for which the “reduction of the infarct size” value in series [2] (irbesartan dosed at 3.0 mg/kg) was “drastic reduction of the infarct size was not seen”. For the same compound, in series [1], the maximum soluble amount amounted to 3.0 mg/kg. In the case of `O=C1OC2(c3ccc(O)cc3Oc3cc(O)ccc32)c2ccc(N=C=S)cc21` [FITC], in series [3], the “fluorescence of FITC in the infarction site” value is listed as “not observed”. `CSc1ccc(C(=O)N[C@H]2CCCC[C@H]2NC(=O)CNC(=O)c2cc(C(F)(F)F)ccc2NC(=O)NC(C)C)cc1` (relative stereo) [BMS CCR2 22, 2-[(Isopropylaminocarbonyl)amino]-N-[2-[[cis-2-[[4-(methylthio)benzoyl]amino]cyclohexyl]amino]-2-oxoethyl]-5-(trifluoromethyl)benzamide] returned a maximum soluble amount in series [1] of 1.0 mg/kg.
